# Results reported in ChEMBL document CHEMBL1201862, “PubChem BioAssay data set” (2004).
#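 Protocol summary: plate cells (96-well), add compound at 5 concentrations, incubate 48 h, interpolate endpoints linearly. GI50 = concentration required for 50% inhibition of growth.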 Calls of active or inactive are those of the source. Rule as the data show it: active = GI50 up to about 1.1 µM and inactive = higher.
# Tests used:
# Assay in all cases: NCI tumour cell line growth inhibition, 48 h
# [1] = system: U-251
# [2] = system: NCI-H23
# [3] = system: K562
# [4] = system: RXF 393
# [5] = system: SNB-19
# [6] = system: LOX IMVI
# [7] = system: OVCAR-8
# [8] = system: SF-539
# [9] = system: CCRF-CEM
# [10] = system: NCI/ADR-RES
# [11] = system: UO-31
# [12] = system: UACC-257
# [13] = system: HL-60
# [14] = system: HCT-116
# [15] = system: SF-295
# [16] = system: MOLT-4
# [17] = system: Malme-3M
# [18] = system: SN12C
# [19] = system: MCF7
# [20] = system: BT-549
Compound,GI50 [1],GI50 [2],GI50 [3],GI50 [4],GI50 [5],GI50 [6],GI50 [7],GI50 [8],GI50 [9],GI50 [10],GI50 [11],GI50 [12],GI50 [13],GI50 [14],GI50 [15],GI50 [16],GI50 [17],GI50 [18],GI50 [19],GI50 [20]
CCOC(=O)NC1CN2CCC1CC2 (configuration not stated),> 100 µM (inactive),> 100 µM (inactive),> 100 µM (inactive),> 100 µM (inactive),> 100 µM (inactive),> 100 µM (inactive),> 100 µM (inactive),> 100 µM (inactive),> 100 µM (inactive),> 100 µM (inactive),> 100 µM (inactive),> 100 µM (inactive),> 100 µM (inactive),> 100 µM (inactive),> 100 µM (inactive),> 100 µM (inactive),> 100 µM (inactive),> 100 µM (inactive),,
COc1ccc(/C(=N/O)c2ccccc2C2=Nc3ccccc3C(NCc3ccccc3)O2)cc1C (configuration not stated),30.5 µM (inactive),> 100 µM (inactive),16.7 µM (inactive),47.3 µM (inactive),36.6 µM (inactive),15.7 µM (inactive),27.2 µM (inactive),96.2 µM (inactive),19.1 µM (inactive),41.8 µM (inactive),20.6 µM (inactive),12.9 µM (inactive),34.8 µM (inactive),25.8 µM (inactive),25 µM (inactive),29.5 µM (inactive),18.6 µM (inactive),22.9 µM (inactive),29.2 µM (inactive),
O=C1C=CC(=O)c2c1ccc1c3ccccc3n(-c3ccccc3)c21,15.2 µM (inactive),15.4 µM (inactive),0.986 µM (active),1.71 µM (inactive),19.5 µM (inactive),7.1 µM (inactive),4.56 µM (inactive),15.7 µM (inactive),0.304 µM (active),,11.9 µM (inactive),5.65 µM (inactive),0.501 µM (active),2.37 µM (inactive),14.6 µM (inactive),0.561 µM (active),4.47 µM (inactive),11.5 µM (inactive),2.11 µM (inactive),13.5 µM (inactive)
CCC#CCCCCCCCCC(F)C(=O)O (configuration not stated),> 100 µM (inactive),> 100 µM (inactive),> 100 µM (inactive),> 100 µM (inactive),> 100 µM (inactive),> 100 µM (inactive),> 100 µM (inactive),> 100 µM (inactive),> 100 µM (inactive),> 100 µM (inactive),> 100 µM (inactive),> 100 µM (inactive),> 100 µM (inactive),> 100 µM (inactive),> 100 µM (inactive),> 100 µM (inactive),> 100 µM (inactive),> 100 µM (inactive),> 100 µM (inactive),
COc1cc(N(CCC#N)CCC#N)ccc1/C=N\NC(=O)c1ccc(C)cc1,16.4 µM (inactive),> 100 µM (inactive),> 100 µM (inactive),> 100 µM (inactive),> 100 µM (inactive),> 100 µM (inactive),> 100 µM (inactive),> 100 µM (inactive),> 100 µM (inactive),> 100 µM (inactive),,> 100 µM (inactive),> 100 µM (inactive),> 100 µM (inactive),> 100 µM (inactive),> 100 µM (inactive),> 100 µM (inactive),> 100 µM (inactive),,> 100 µM (inactive)
CC(=O)OCCOCn1c2c(c(=S)[nH]c1=O)CCC2,> 100 µM (inactive),> 100 µM (inactive),> 100 µM (inactive),> 100 µM (inactive),> 100 µM (inactive),> 100 µM (inactive),> 100 µM (inactive),> 100 µM (inactive),> 100 µM (inactive),,> 100 µM (inactive),> 100 µM (inactive),> 100 µM (inactive),> 100 µM (inactive),> 100 µM (inactive),> 100 µM (inactive),> 100 µM (inactive),> 100 µM (inactive),> 100 µM (inactive),> 100 µM (inactive)
